# Data taken from patent US7951815B2, “Substituted 1,4,8-triazaspiro [4,5]decan-2-one compounds” (Gruenenthal GmbH, priority 2004, dated 2011).
# Key:
# [1] = target: T1, 5-HT transporter (Rattus norvegicus, UniProt P31652); assay: Inhibition of 5-HT uptake in rat brain synaptosomes; format: biochemical; conditions: Table III, rat, 1 μM; for inhibition at 1 µM: read-out: Uptake 5-HT, % inhibition
# T1 construct: synaptosomes of rat brain areas are freshly isolated; from tissue; host or cells: rat brain synaptosomes (P2 fraction) from marrow and pons
# T1 sequence (P31652 whole entry): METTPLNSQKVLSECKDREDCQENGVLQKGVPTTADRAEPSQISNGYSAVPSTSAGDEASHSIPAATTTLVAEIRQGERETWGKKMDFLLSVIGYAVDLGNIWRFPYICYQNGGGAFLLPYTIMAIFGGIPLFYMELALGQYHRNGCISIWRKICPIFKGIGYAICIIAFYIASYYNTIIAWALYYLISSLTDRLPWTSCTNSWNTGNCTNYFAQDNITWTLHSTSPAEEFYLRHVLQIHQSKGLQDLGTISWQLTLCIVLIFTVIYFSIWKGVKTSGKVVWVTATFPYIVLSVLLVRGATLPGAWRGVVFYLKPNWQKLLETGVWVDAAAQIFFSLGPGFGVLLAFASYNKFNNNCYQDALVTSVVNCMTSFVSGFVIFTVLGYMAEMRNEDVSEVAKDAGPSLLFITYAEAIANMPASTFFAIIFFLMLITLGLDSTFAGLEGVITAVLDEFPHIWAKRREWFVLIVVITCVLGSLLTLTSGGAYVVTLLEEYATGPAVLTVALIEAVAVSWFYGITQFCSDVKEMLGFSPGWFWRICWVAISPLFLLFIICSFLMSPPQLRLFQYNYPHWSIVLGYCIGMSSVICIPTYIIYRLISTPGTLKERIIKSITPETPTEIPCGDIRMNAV
# [2] = system: NA transporter; assay: Inhibition of noradrenaline uptake in rat brain synaptosomes; format: biochemical; conditions: Table III
SMILES,inhibition at 1 µM [1],"Uptake (NA), rat, 10 μM, % inhibition [2]","Uptake 5-HT, rat, 1 μM, % inhibition [1]"
"CCCC(C)C(=O)N1CCC2(CC1)NCC(=O)N2Cc1ccccc1C#N (stereo not drawn) [Example 71, 2-[8-(2-Methylpentanoyl)-2-oxo-1,4,8-triazaspiro[4,5]dec-1-ylmethyl]benzonitrile]",53%,52%,–
"CCSc1ncccc1C(=O)N1CCC2(CC1)NC(Cc1ccccc1)C(=O)N2C (stereo not drawn) [Example 78, 3-Benzyl-8-(2-ethylsulfanylpyridin-3-carbonyl)-1-methyl-1,4,8-triazaspiro[4,5]decan-2-one]",56%,33%,–
"CC(C)CC1NC2(CCN(C(=O)COCc3ccccc3)CC2)NC1=O (stereo not drawn) [Example 80, 8-(2-Benzyloxyacetyl)-3-isobutyl-1,4,8-triazaspiro[4,5]decan-2-one]",–,30%,–
"Cc1cccc(C(=O)N2CCC3(CC2)NCC(=O)N3CCOc2ccccc2)c1 [Example 86, 8-(3-Methylbenzoyl)-1-(2-phenoxyethyl)-1,4,8-triazaspiro[4,5]decan-2-one]",50%,38%,–
"Cc1nnsc1C(=O)N1CCC2(CC1)NCC(=O)N2Cc1ccccc1 [Example 88, 1-Benzyl-8-(4-methyl[1,2,3]thiadiazole-5-carbonyl)-1,4,8-triazaspiro[4,5]decan-2-one]",34%,32%,–
"N#Cc1ccccc1CN1C(=O)CNC12CCN(C(=O)C=Cc1ccccc1Cl)CC2 [Example 89, 2-{8-[3-(2-Chlorophenyl)acryloyl]-2-oxo-1,4,8-triazaspiro[4,5]dec-1-ylmethyl}benzonitrile]",43%,41%,–
"CC(C)CC1NC2(CCN(C(=O)c3cccc(Cl)c3)CC2)NC1=O (stereo not drawn) [Example 90, 8-(3-Chlorobenzoyl)-3-isobutyl-1,4,8-triazaspiro[4,5]decan-2-one]",41%,35%,–
"COc1cc(OC)cc(C(=O)N2CCC3(CC2)NC(=O)C(CC(C)C)N3)c1 (stereo not drawn) [Example 92, 8-(3,5-Dimethoxybenzoyl)-3-isobutyl-1,4,8-triazaspiro[4,5]decan-2-one]",30%,30%,–
"CC(C)CC1NC2(CCN(C(=O)c3sccc3Cl)CC2)NC1=O (stereo not drawn) [Example 94, 8-(3-Chlorothiophene-2-carbonyl)-3-isobutyl-1,4,8-triazaspiro[4,5]decan-2-one]",–,38%,–
"CC(C)C1NC2(CCN(C(=O)c3c(F)c(F)c(F)c(F)c3F)CC2)NC1=O (stereo not drawn) [Example 95, 3-Isopropyl-8-pentafluorobenzoyl-1,4,8-triazaspiro[4,5]decan-2-one]",–,31%,–
"CCCCN1C(=O)C(CCSC)NC12CCN(C(=O)Cc1ccc(OC)c(OC)c1)CC2 (stereo not drawn) [Example 97, 1-Butyl-8-[2-(3,4-dimethoxyphenyl)acetyl]-3-(2-methylsulfanylethyl)-1,4,8-triazaspiro[4,5]decan-2-one]",67%,30%,–
"CC(C)C1NC2(CCN(C(=O)c3ccncc3)CC2)N(Cc2ccccc2)C1=O (stereo not drawn) [Example 98, 1-Benzyl-3-isopropyl-8-(pyridin-4-carbonyl)-1,4,8-triazaspiro[4,5]decan-2-one]",57%,36%,–
"CSCCC1NC2(CCN(C(=O)CC3NC(=O)NC3=O)CC2)N(Cc2ccc(F)cc2)C1=O (stereo not drawn) [Example 100, 5-{2-[1-(4-Fluorobenzyl)-3-(2-methylsulfanylethyl)-2-oxo-1,4,8-triazaspiro[4,5]dec-8-yl]-2-oxoethyl}imidazolidine-2,4-dione]",42%,32%,–
"CC(C)C1NC2(CCN(C(=O)c3ccco3)CC2)N(Cc2ccccc2C#N)C1=O (stereo not drawn) [Example 103, 2-[8-(Furan-2-carbonyl)-3-isopropyl-2-oxo-1,4,8-triazaspiro[4,5]dec-1-ylmethyl]benzonitrile]",34%,30%,–
"Cc1cccc(C(=O)N2CCC3(CC2)NC(=O)C(Cc2ccccc2)N3)c1C (stereo not drawn) [Example 108, 3-Benzyl-8-(2,3-dimethylbenzoyl)-1,4,8-triazaspiro[4,5]decan-2-one]",–,37%,–
"CSCCC1NC2(CCN(C(=O)c3ccccn3)CC2)N(Cc2ccc(F)cc2)C1=O (stereo not drawn) [Example 109, 1-(4-Fluorobenzyl)-3-(2-methylsulfanylethyl)-8-(pyridin-2-carbonyl)-1,4,8-triazaspiro[4,5]decan-2-one]",50%,32%,–
"COCC(=O)N1CCC2(CC1)NC(CCSC)C(=O)N2Cc1cccc(C#N)c1 (stereo not drawn) [Example 112, 3-[8-(2-Methoxyacetyl)-3-(2-methylsulfanylethyl)-2-oxo-1,4,8-triazaspiro[4,5]dec-1-ylmethyl]benzonitrile]",43%,42%,–
"CC(=O)OC(C(=O)N1CCC2(CC1)NC(Cc1ccccc1)C(=O)N2C)c1ccccc1 (stereo not drawn) [Example 113, Ethyl 2-(3-benzyl-1-methyl-2-oxo-1,4,8-triazaspiro[4,5]dec-8-yl)-2-oxo-1-phenylacetate]",–,46%,35%
"CSCCC1NC2(CCN(C(=O)c3cccnc3Oc3ccccc3)CC2)N(C)C1=O (stereo not drawn) [Example 120, 1-Methyl-3-(2-methylsulfanylethyl)-8-(2-phenoxypyridin-3-carbonyl)-1,4,8-triazaspiro[4,5]decan-2-one]",–,32%,–
"O=C(C1CCCCC1)N1CCC2(CC1)NCC(=O)N2CCOc1ccccc1 [Example 123, 8-Cyclohexanecarbonyl-1-(2-phenoxyethyl)-1,4,8-triazaspiro[4,5]decan-2-one]",–,36%,–
"CSCCC1NC2(CCN(C(=O)c3ccc4c(c3)OCO4)CC2)N(Cc2cccc(C#N)c2)C1=O (stereo not drawn) [Example 138, 3-[8-(Benzo[1,3]dioxol-5-carbonyl)-3-(2-methylsulfanylethyl)-2-oxo-1,4,8-triazaspiro[4,5]dec-1-ylmethyl]benzonitrile]",–,30%,–
"C=CCCC(=O)N1CCC2(CC1)NC(Cc1ccccc1)C(=O)N2C (stereo not drawn) [Example 139, 3-Benzyl-1-methyl-8-pent-4-enoyl-1,4,8-triazaspiro[4,5]decan-2-one]",–,31%,–
"CN1C(=O)C(Cc2ccccc2)NC12CCN(C(=O)c1ccc([N+](=O)[O-])cc1)CC2 (stereo not drawn) [Example 238, 3-Benzyl-1-methyl-8-(4-nitrobenzoyl)-1,4,8-triazaspiro[4,5]decan-2-one]",–,31%,–
"COC(=O)c1ccc(CN2C(=O)CNC23CCN(C(=O)c2ccnc(Cl)c2)CC3)cc1 [Example 272, Methyl 4-[8-(2-Chloropyridin-4-earbonyl)-2-oxo-1,4,8-triazaspiro[4,5]dec-1-ylmethyl]benzoate]",–,31%,–
"CCOC(=O)CN1C(=O)C(CCSC)NC12CCN(C(=O)c1ccccc1C(=O)OCc1ccccc1)CC2 (stereo not drawn) [Example 332, Benzyl 2-[1-ethoxycarbonylmethyl-3-(2-methylsulfanylethyl)-2-oxo-1,4,8-triazaspiro[4,5]decan-8-carbonyl]benzoate]",–,36%,–
